Assay [1] relates to pCHK1 (S345) in Colo320 DM cells. Briefly: CHK1 cellular activity (phospho-CHK1 AlphaLisa). It counts as cell-based, human. The note with it: Homo sapiens, COLO 320DM, 16 h, compound overnight (approximately 16 hours). The essentials: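 Colo320 DM cells (50,000/well, RPMI-1640 with 10% FBS) were treated with compound overnight (~16 h) at 37 °C, final DMSO <0.5%. Lysates were assayed for pCHK1 (S345) by AlphaLisa SureFire, a replication-stress marker downstream of RNR inhibition.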

In a further assay the target is RNR (RNR1:RNR2) (Homo sapiens (Human), UniProt P23921+P31350). Kind of assay: RNR enzyme activity, rapid-fire mass spectrometry (RFMS) assay. The note with it: [RNR] 50 nM, 1:1 RNR1:RNR2, [CDP] 5 μM, [ATP] 1 mM, 37° C., 45 min. The assay is classed as biochemical. In a few lines:
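RNR1:RNR2 (1:1, 50 nM final) was preincubated 15 min at room temperature with compound (10 nM–30 μM), then reacted 45 min at 37° C. with 5 μM CDP and 1 mM ATP, without NADPH. Reactions were stopped with 6% formic acid and read by RapidFire mass spectrometry.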

A value given as a limit tells only on which side of the number the result lay.

One may read the IC50 as the concentration at which inhibition is half-maximal. The low end stands for greater potency in that assay, the high end for weaker potency in that assay.

RNR (RNR1:RNR2), sequence (P23921 whole entry): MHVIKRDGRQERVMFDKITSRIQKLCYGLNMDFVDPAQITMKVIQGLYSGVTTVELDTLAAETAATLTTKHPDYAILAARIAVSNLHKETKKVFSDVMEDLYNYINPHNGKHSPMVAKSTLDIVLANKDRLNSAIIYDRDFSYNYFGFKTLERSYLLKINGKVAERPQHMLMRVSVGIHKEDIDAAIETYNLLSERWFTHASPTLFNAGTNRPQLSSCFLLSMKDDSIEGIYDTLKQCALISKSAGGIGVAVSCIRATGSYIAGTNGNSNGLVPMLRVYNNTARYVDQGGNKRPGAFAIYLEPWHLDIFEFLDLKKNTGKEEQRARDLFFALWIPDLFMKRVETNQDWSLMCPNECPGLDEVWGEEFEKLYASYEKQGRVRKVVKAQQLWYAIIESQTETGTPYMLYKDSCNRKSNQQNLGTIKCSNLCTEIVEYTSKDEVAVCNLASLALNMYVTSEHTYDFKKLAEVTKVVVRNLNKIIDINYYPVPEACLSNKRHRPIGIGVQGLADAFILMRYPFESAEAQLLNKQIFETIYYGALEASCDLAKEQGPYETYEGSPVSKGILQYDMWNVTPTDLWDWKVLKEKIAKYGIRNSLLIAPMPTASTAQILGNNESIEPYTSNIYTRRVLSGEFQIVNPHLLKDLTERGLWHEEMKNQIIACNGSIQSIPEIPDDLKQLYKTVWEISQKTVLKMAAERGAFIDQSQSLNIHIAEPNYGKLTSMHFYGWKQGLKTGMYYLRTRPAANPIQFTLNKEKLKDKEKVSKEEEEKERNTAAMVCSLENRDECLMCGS
RNR (RNR1:RNR2), sequence (P31350 whole entry): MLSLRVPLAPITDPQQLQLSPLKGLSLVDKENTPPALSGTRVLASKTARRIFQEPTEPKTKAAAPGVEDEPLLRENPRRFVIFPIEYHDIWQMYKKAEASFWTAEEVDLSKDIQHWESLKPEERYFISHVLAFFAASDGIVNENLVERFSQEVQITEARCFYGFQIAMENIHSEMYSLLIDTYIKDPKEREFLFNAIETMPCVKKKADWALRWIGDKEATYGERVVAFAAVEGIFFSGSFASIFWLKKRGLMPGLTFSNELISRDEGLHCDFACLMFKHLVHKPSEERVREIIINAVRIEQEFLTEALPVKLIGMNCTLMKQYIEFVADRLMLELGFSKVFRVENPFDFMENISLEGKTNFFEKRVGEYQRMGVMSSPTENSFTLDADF

Regarding `Cc1ccc(F)c([C@@H](C)[C@H](NS(=O)(=O)c2ccc(Cl)cc2C2CC2)c2nn[nH]n2)c1C` [Example 61, 4-chloro-2-cyclopropyl-N-((1S,2R)-2-(6-fluoro-2,3-dimethylphenyl)-1-(2H-tetrazol-5-yl)propyl)benzenesulfonamide], the IC50 in assay [1] fell in the range of 10 to 30 µM; at RNR (RNR1:RNR2) it was 0.1 to 1 µM.

Take `COc1nc(Cl)ccc1S(=O)(=O)N[C@H](c1nn[nH]n1)[C@H](C)c1c(F)ccc(C)c1C` [Example 62, 6-chloro-N-((1S,2R)-2-(6-fluoro-2,3-dimethylphenyl)-1-(2H-tetrazol-5-yl)propyl)-2-methoxypyridine-3-sulfonamide]: the 50% inhibitory concentration (IC50) in assay [1] is 10 to 30 µM; on RNR (RNR1:RNR2), ≤ 0.1 µM.

Consider `COc1cc(C#N)ccc1S(=O)(=O)N[C@H](c1nn[nH]n1)[C@H](C)c1c(F)ccc(C)c1C` [Example 64, 4-cyano-N-((1S,2R)-2-(6-fluoro-2,3-dimethylphenyl)-1-(2H-tetrazol-5-yl)propyl)-2-methoxybenzenesulfonamide], for which the half-inhibitory concentration (IC50) in assay [1] lay within 50 to 100 µM; at RNR (RNR1:RNR2), 0.1 to 1 µM.

Turning to `Cc1ccc(F)c([C@@H](C)[C@H](NS(=O)(=O)c2ccc(Cl)c(C(F)(F)C(=O)N(C)C)c2)c2nn[nH]n2)c1C` [Example 72, 2-(2-chloro-5-(N-((1S,2R)-2-(6-fluoro-2,3-dimethylphenyl)-1-(2H-tetrazol-5-yl)propyl)sulfamoyl)phenyl)-2,2-difluoro-N,N-dimethylacetamide], the IC50 in assay [1] was 50 to 100 µM; against RNR (RNR1:RNR2) it was 0.1 to 1 µM.

With `COc1c(S(=O)(=O)N[C@H](c2nn[nH]n2)[C@H](C)c2c(F)ccc(C)c2C)ccc(Cl)c1F` [Example 73, 4-chloro-3-fluoro-N-((1S,2R)-2-(6-fluoro-2,3-dimethylphenyl)-1-(2H-tetrazol-5-yl)propyl)-2-methoxybenzenesulfonamide], the IC50 in assay [1] lay within 10 to 30 µM; at RNR (RNR1:RNR2), 0.1 to 1 µM.

With `Cc1ccc(F)c([C@@H](C)[C@H](NS(=O)(=O)c2ccc(Cl)c3c2OCCC3)c2nn[nH]n2)c1C` [Example 74, 5-chloro-N-((1S,2R)-2-(6-fluoro-2,3-dimethylphenyl)-1-(2H-tetrazol-5-yl)propyl)chromane-8-sulfonamide], the 50% inhibitory concentration (IC50) was ≤ 10 µM in assay [1] and ≤ 0.1 µM against RNR (RNR1:RNR2).

`CNc1cc(Cl)ccc1S(=O)(=O)N[C@H](c1nn[nH]n1)[C@H](C)c1c(F)ccc(C)c1C` [Example 75, 4-chloro-N-((1S,2R)-2-(6-fluoro-2,3-dimethylpehnyl)-1-(2H-tetrazol-5-yl)propyl)-2-(methylamino)benzenesulfonamide]: the 50% inhibitory concentration (IC50) in assay [1] lay within 10 to 30 µM; on RNR (RNR1:RNR2) it was 0.1 to 1 µM.

Take `CNC(=O)c1cc(Cl)ccc1S(=O)(=O)N[C@H](c1nn[nH]n1)[C@H](C)c1c(F)ccc(C)c1C` [Example 76, 5-chloro-2-(N-((1S,2R)-2-(6-fluoro-2,3-dimethylphenyl)-1-(2H-tetrazol-5-yl)propyl)sulfamoyl)-N-methylbenzamide]: the results for the concentration for half-maximal inhibition (IC50) (in assay [1]; against RNR (RNR1:RNR2)) were 50 to 100 µM and 0.1 to 1 µM, respectively.

On to `Cc1ccc(F)c([C@@H](C)[C@H](NS(=O)(=O)c2ccc(Cl)cc2N(C)CCO)c2nn[nH]n2)c1C` [Example 77, 4-chloro-N-((1S,2R)-2-(6-fluoro-2,3-dimethylphenyl)-1-(2H-tetrazol-5-yl)propyl)-2-((2-hydroxyethyl)(methyl)amino)benzenesulfonamide], for which the results for the IC50 (in assay [1]; on RNR (RNR1:RNR2)) were 10 to 30 µM and ≤ 0.1 µM, respectively.

Consider `Cc1ccc(F)c([C@@H](C)[C@H](NS(=O)(=O)c2ccc(Cl)cc2N2CCOCC2)c2nn[nH]n2)c1C` [Example 78, 4-chloro-N-((1S,2R)-2-(6-fluoro-2,3-dimethylphenyl)-1-(2H-tetrazol-5-yl)propyl)-2-morpholinobenzenesulfonamide], for which the IC50 was 30 to 50 µM in assay [1] and 0.1 to 1 µM against RNR (RNR1:RNR2).

`Cc1ccc(F)c([C@@H](C)[C@H](NS(=O)(=O)c2ccc(Cl)cc2N2CCN(C)CC2)c2nn[nH]n2)c1C` [Example 79, 4-chloro-N-((1S,2R)-2-(6-fluoro-2,3-dimethylphenyl)-1-(2H-tetrazol-5-yl)propyl)-2-(4-methylpiperazin-1-yl)benzenesulfonamide]: the values for the IC50 (in assay [1]; against RNR (RNR1:RNR2)) were 50 to 100 µM and 0.1 to 1 µM, respectively.

For the compound `Cc1ccc(F)c([C@@H](C)[C@H](NS(=O)(=O)c2ccc(Cl)cc2N2CCCCC2)c2nn[nH]n2)c1C` [Example 80, 4-chloro-N-((1S,2R)-2-(6-fluoro-2,3-dimethylphenyl)-1-(2H-tetrazol-5-yl)propyl)-2-(piperidin-1-yl)benzensulfonamide], the IC50 in assay [1] fell in the range of 30 to 50 µM; against RNR (RNR1:RNR2) it was 0.1 to 1 µM.

The values above are taken from patent US20240158383A1, “RIBONUCLEOTIDE REDUCTASE (RNR) INHIBITORS AND USES THEREOF” (Boundless Bio, Inc., priority 2021, published 2024).
